Target: T1, α1A-AR (Homo sapiens, UniProt P35348)
T1 construct: expressed in transfected cells; host or cells: HEK293
T1 sequence (P35348 1-466): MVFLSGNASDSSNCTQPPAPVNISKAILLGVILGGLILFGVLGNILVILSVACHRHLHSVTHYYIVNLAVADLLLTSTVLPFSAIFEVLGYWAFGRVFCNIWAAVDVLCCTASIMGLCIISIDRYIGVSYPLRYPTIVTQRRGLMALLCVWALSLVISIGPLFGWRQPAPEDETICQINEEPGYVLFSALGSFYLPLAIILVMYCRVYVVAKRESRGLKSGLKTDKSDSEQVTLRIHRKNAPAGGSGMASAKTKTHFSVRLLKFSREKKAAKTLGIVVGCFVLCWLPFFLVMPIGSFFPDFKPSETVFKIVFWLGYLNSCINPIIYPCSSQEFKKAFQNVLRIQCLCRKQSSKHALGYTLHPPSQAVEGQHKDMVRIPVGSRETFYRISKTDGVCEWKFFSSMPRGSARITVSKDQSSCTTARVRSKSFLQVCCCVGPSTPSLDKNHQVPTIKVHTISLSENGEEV
Test: Calcium mobilization (Fluo-4) antagonism of phenylephrine in HEK293 cells expressing α1A-AR/Gα16
Assay type: cell-based
Settings: HEK293 α1A-AR/Gα16, calcium mobilization, phenylephrine 30 nM
Description: (§1) HEK293 cells stably expressing α1A-AR/Gα16, α1B-AR/Gα16, α1D-AR/Gα16 were seeded in a 96-well plate, and cultured for 24 hours. Then the medium was removed and 40 μL Hank's balanced salt solution (HBSS: containing 5.4 mM KCl, 0.3 mM Na2HPO4, 0.4 mM KH2PO4, 4.2 mM NaHCO3, 1.3 mM CaCl2, 0.5 mM MgCl2, 0.6 mM MgSO4, 137 mM NaCl, 5.6 mM D-glucose, and 250 μM sulfinpyrazone, pH 7.4) containing 2 μM Fluo-4 AM was added into each well, and incubated at 37° C. for 45 min. Dye was removed and 50 μL of HBSS containing either test compound or 1% DMSO (negative control) was added. After incubation at room temperature for 10 min, Flex Station 3 microplate reader was used to read the value. At specified time points, 25 μL of agonist (phenylephrine, final concentration 30 nM) was dispensed into the well automatically using the reader and fluorescence intensity change of dye caused by intracellular calcium concentration change was detected at an excitation wavelength of 485 nm and an emission wavelength of 525 nm.
(§2) After incubation with different drugs, the reaction rate of cells to 1-AR agonist phenylephrine was calculated as follows: Reaction rate %=(D−B)/(S−B)*100%;
(§3) The reaction rate of the same drug at different doses was tested using GraphPad Prism software by non-linear regression analysis, and the dose-response curve was obtained and IC50 values was measured. Data were obtained from three separate experiments, and each experiment included three duplicate wells.

SMILES	IC50
COc1cc2c(c(OC)c1OC)CN1CCc3cc4c(cc3[C@@H]1C2)OCO4 [DC037010]	238 nM
COc1cc2c(cc1OC)[C@@H]1Cc3cc(C)cc(C)c3CN1CC2 [DC037011]	532 nM
COc1cc2c(cc1OC)CN1CCc3cc4c(cc3C1C2)OCO4 (stereo not shown) [DC037012]	257 nM
COc1cc2c(cc1O)[C@@H]1Cc3cc4c(cc3CN1CC2)OCO4 [DC037013]	268 nM
COc1cc2c(cc1OCc1ccccc1)CN1CCc3cc4c(cc3[C@@H]1C2)OCO4 [DC037014]	303 nM

Same assay, conditions: ratio of cell IC50 values, calcium mobilization

SMILES	α1B/α1A
COc1cc2c(c(OC)c1OC)CN1CCc3cc4c(cc3[C@@H]1C2)OCO4 [DC037010]	5.0
COc1cc2c(cc1OC)[C@@H]1Cc3cc(C)cc(C)c3CN1CC2 [DC037011]	64.4
COc1cc2c(cc1OC)CN1CCc3cc4c(cc3C1C2)OCO4 (stereo not shown) [DC037012]	29.2
COc1cc2c(cc1O)[C@@H]1Cc3cc4c(cc3CN1CC2)OCO4 [DC037013]	16.1
COc1cc2c(cc1OCc1ccccc1)CN1CCc3cc4c(cc3[C@@H]1C2)OCO4 [DC037014]	118.5

Target: T2, α1B-AR (Homo sapiens, UniProt P35368)
T2 construct: expressed in transfected cells; host or cells: HEK293
T2 sequence (P35368 1-520): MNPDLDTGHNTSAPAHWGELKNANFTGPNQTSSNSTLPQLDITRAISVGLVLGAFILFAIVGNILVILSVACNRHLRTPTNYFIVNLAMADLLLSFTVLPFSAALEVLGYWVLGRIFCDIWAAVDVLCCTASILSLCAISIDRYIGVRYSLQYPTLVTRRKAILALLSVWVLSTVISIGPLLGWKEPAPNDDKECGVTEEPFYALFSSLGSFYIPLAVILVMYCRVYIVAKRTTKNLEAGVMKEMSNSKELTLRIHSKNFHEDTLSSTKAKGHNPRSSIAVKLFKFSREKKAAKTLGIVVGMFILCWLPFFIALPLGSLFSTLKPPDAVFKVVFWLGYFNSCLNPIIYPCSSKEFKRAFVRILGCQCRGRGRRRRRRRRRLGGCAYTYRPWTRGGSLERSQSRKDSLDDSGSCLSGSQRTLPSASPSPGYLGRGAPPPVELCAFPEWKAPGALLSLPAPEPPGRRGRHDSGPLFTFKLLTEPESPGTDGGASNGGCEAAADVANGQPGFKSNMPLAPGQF
Test: Calcium mobilization (Fluo-4) antagonism of phenylephrine in HEK293 cells expressing α1B-AR/Gα16
Assay type: cell-based
Settings: phenylephrine 30 nM
Description: as §1, §2, §3

SMILES	IC50
COc1cc2c(c(OC)c1OC)CN1CCc3cc4c(cc3[C@@H]1C2)OCO4 [DC037010]	1200 nM
COc1cc2c(cc1OC)[C@@H]1Cc3cc(C)cc(C)c3CN1CC2 [DC037011]	34300 nM
COc1cc2c(cc1OC)CN1CCc3cc4c(cc3C1C2)OCO4 (stereo not shown) [DC037012]	7520 nM
COc1cc2c(cc1O)[C@@H]1Cc3cc4c(cc3CN1CC2)OCO4 [DC037013]	4310 nM
COc1cc2c(cc1OCc1ccccc1)CN1CCc3cc4c(cc3[C@@H]1C2)OCO4 [DC037014]	35900 nM
CCOc1ccccc1OCCN[C@H](C)Cc1ccc(OC)c(S(N)(=O)=O)c1 [Tamsulosin, reference compound]	3.08 nM

Target: T3, α1D-AR (Homo sapiens, UniProt P25100)
T3 construct: expressed in transfected cells; host or cells: HEK293
T3 sequence (P25100 1-572): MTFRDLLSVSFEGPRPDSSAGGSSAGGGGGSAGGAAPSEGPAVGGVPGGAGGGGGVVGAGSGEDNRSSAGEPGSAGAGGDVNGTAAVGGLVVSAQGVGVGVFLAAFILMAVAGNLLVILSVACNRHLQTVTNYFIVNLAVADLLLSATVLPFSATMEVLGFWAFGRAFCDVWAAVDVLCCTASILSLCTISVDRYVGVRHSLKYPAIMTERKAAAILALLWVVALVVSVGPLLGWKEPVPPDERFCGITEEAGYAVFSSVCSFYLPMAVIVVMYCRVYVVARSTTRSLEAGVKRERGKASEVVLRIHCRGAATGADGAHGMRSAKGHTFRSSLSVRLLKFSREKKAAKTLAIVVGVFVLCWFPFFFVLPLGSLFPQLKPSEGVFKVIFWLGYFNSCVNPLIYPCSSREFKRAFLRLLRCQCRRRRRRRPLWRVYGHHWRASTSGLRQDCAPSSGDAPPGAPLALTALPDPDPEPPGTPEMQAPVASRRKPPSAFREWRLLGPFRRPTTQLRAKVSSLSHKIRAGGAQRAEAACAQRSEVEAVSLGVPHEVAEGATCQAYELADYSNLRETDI
Test: Calcium mobilization (Fluo-4) antagonism of phenylephrine in HEK293 cells expressing α1D-AR/Gα16
Assay type: cell-based
Settings: phenylephrine 30 nM
Description: as §1, §2, §3

SMILES	IC50
COc1cc2c(c(OC)c1OC)CN1CCc3cc4c(cc3[C@@H]1C2)OCO4 [DC037010]	2560 nM
COc1cc2c(cc1OC)[C@@H]1Cc3cc(C)cc(C)c3CN1CC2 [DC037011]	2640 nM
COc1cc2c(cc1OC)CN1CCc3cc4c(cc3C1C2)OCO4 (stereo not shown) [DC037012]	242 nM
COc1cc2c(cc1O)[C@@H]1Cc3cc4c(cc3CN1CC2)OCO4 [DC037013]	263 nM
COc1cc2c(cc1OCc1ccccc1)CN1CCc3cc4c(cc3[C@@H]1C2)OCO4 [DC037014]	1340 nM
CCOc1ccccc1OCCN[C@H](C)Cc1ccc(OC)c(S(N)(=O)=O)c1 [Tamsulosin, reference compound]	0.18 nM

Target: T1, α1A-AR
Test: Tag-lite receptor binding assay, HEK293 cells expressing SNAP-α1A-AR
Settings: Tag-lite binding, HEK293 SNAP-α1A-AR
Description: (§4) Tag-lite assay was used to study receptor binding activity. Tag-lite assay was a combination of SNAP-Tag and HTRF technology, and was used to analyze surface receptors on live cell. SNAPs were small tag fusion proteins which could irreversibly, specifically and covalently bind to substrates via benzylmethyl, and the substrates were benzylmethyl guanine and benzylmethyl cytosine. Substrates and various dyes formed derivatives, and through covalent reaction, the dye was labeled onto SANPs. Plasmid was constructed using pSNAP and α1-AR encoding gene. After transfection into cells, N-terminal fusion protein of SNAP and α1-AR was expressed. The substrate and HTRF fluorescent dye (donor compound Lumi4-Tb) formed a derivative which reacted with SANP-α1-AR fusion protein so that Tb was labeled onto α1-AR. After adding acceptor fluorescent dye-labeled ligand, the receptor and ligand binding experiment was performed.
(§5) HEK293 cells stably expressing SNAP-α1A-AR, SNAP-α1B-AR, SNAP-α1D-AR were seeded in 3 cm dishes, and cultured for 24 hours. 100 nM Tag-lite SNAP Lumi4Tb was added and incubated for 1 h in an incubator. Cells were detached and washed with a labeling buffer for 4 times, and then was added into a 384-well plate in a volume of 10 μL per well. […] After incubation at room temperature for 1 hour, fluorescence intensity changes caused by cell receptor and ligand changes were detected using 665 nm (acceptor) and 620 nm (donor) at same time.
(§6) After incubation with different drugs, the reaction rate of cells to 1-AR fluorescein-labeled known ligand was calculated as follows: Reaction rate %=(D−B)/(S−B)*100%
as §3, with “Ki” for “IC50”, “includes” for “included”

SMILES	IC50
COc1cc2c(cc1OCC(F)F)C[C@H]1c3cc4c(cc3CCN1C2)OCO4 [DC037018]	0.95 nM

Same assay, conditions: ratio of Tag-lite binding values

SMILES	α1B/α1A
COc1cc2c(cc1OCC(F)F)C[C@H]1c3cc4c(cc3CCN1C2)OCO4 [DC037018]	51.2

Target: T2, α1B-AR
Test: Tag-lite receptor binding assay, HEK293 cells expressing SNAP-α1B-AR
Settings: not given
Description: as §4, §5, §6
as §3, with “Ki” for “IC50”, “includes” for “included”

SMILES	IC50
COc1cc2c(cc1OCC(F)F)C[C@H]1c3cc4c(cc3CCN1C2)OCO4 [DC037018]	48.6 nM
CCOc1ccccc1OCCN[C@H](C)Cc1ccc(OC)c(S(N)(=O)=O)c1 [Tamsulosin, reference compound]	0.16 nM

Tested on: urethra smooth muscle
Test: In vitro urethra smooth muscle experiment (norepinephrine-induced contraction)
Set-up: species or system Wistar rats; Urethra inhibition rate (%): concentration or dose not given beside the values
Settings: isolated rat prostatic urethra, norepinephrine 3×10^−4 mol/L
Description: Healthy male Wistar rats were hit head to cause faint. The abdominal cavity and the pubic symphysis was quickly cut so as to quickly remove the prostatic urethra, which was immediately placed into a dish filled with 4° C. Kerbs-Henseleit solution (K-H solution). The surrounding tissue were carefully separated, and muscle strips about 3-5 mm were obtained, and the lower end was fixed onto a 20 mL of thermostatic bath and the upper end was connected onto a pressure transducer. Nutrient liquid was K-H solution, and carbogen (95% oxygen and 5% carbon dioxide) was aerated, and the bath temperature was 37° C., and resting tension applied was 0.5 g. The nutrient liquid was replaced every 6-8 mins. Until baseline stabilized, norepinephrine was added with a final concentration of 3×10^−4 mol/L in bath tube. When the contraction curve reached the highest point, it was rinsed immediately to recover to baseline levels. When baseline was stabilized, test drug with different concentrations was added respectively, and incubated 3-5 mins. 60 μL 1×10^−1 M norepinephrine was added with a final concentration of 3×10^−4 mol/L in bath tube, and the contraction curve was recorded.

SMILES	IC50
COc1cc2c(cc1OCC(F)F)C[C@H]1c3cc4c(cc3CCN1C2)OCO4 [DC037018]	147 nM
CCOc1ccccc1OCCN[C@H](C)Cc1ccc(OC)c(S(N)(=O)=O)c1 [Tamsulosin, reference compound]	0.47 nM

Same assay, conditions: isolated rat urethra, norepinephrine-induced contraction

SMILES	Urethra inhibition rate (%)
COc1cc2c(cc1OCC(F)F)C[C@H]1c3cc4c(cc3CCN1C2)OCO4 [DC037018]	61%
CCOc1ccccc1OCCN[C@H](C)Cc1ccc(OC)c(S(N)(=O)=O)c1 [Tamsulosin, reference compound]	82%

Same assay, conditions: selectivity ratio of IC50 values, isolated rat tissues

SMILES	Aorta/Urethra
COc1cc2c(cc1OCC(F)F)C[C@H]1c3cc4c(cc3CCN1C2)OCO4 [DC037018]	61
CCOc1ccccc1OCCN[C@H](C)Cc1ccc(OC)c(S(N)(=O)=O)c1 [Tamsulosin, reference compound]	0.53

Tested on: vascular smooth muscle (thoracic aorta)
Test: In vitro vascular smooth muscle experiment (norepinephrine-induced contraction of thoracic aorta rings)
Set-up: species or system Wistar rats
Settings: isolated rat thoracic aorta rings, norepinephrine 10^−7 mol/L
Description: Healthy male Wistar rats were hit head to cause faint. The abdominal cavity was quickly cut, and the thoracic aorta was taken out. The attached tissue was separated and cut into 2-3 mm vascular rings. The experiment was carried out in the same manner as in urethral smooth muscle experiment. The resting tension applied was 1 g, and when baseline was stabilized, norepinephrine was added with a final concentration of 10^−7 mol/L in bath tube. When the contraction curve reached the highest point, rinse was performed immediately to recover to baseline levels. When baseline was stabilized, test drug with different concentrations was added respectively, and incubated 3-5 mins. 20 μL 1×10^−4 M norepinephrine was added with a final concentration of 10^−7 mol/L in bath tube, and contraction curve was recorded.

SMILES	IC50
COc1cc2c(cc1OCC(F)F)C[C@H]1c3cc4c(cc3CCN1C2)OCO4 [DC037018]	2210 nM
CCOc1ccccc1OCCN[C@H](C)Cc1ccc(OC)c(S(N)(=O)=O)c1 [Tamsulosin, reference compound]	0.25 nM
